Tests used:
[1] = leakage from liposomes at 37°C in DMEM-GG-FCS; format: physicochemical
Method: The release of liposome contents as a function of time was assessed by centrifugal elution of free ddCTP through Centrifree filters (Amicon, Danvers, Mass., USA). Typically, 100 microliters of suspension was centrifuged at 1500 G for about 10 minutes, 100 microliters additional phosphate-buffered saline was added, and the filter was again spun for about 10 minutes. Pooled filtrate was counted for ³H-ddCTP to determine released drug, and the filter itself was similarly counted to establish the mass balance. Very little ¹⁴C-cholesteryl oleate was ever found in the filtrate, indicating that liposomal lipid was not passing through the filter. […] Leakage tests were also conducted under conditions mimicking those of the viral experiments infra, i.e., in tissue culture plates with 96 flat-bottom wells (Costar, Cambridge, Mass., USA) at 37°C in a CO₂ incubator in Dulbecco's Minimal Eagles Medium supplemented with gentamycin, glutamine, and 10% fetal calf serum (DMEM-GG-FCS). […] In contrast, 50% of the ddC was released within 1 hour, and 95% within 4 hours.

monocytes [2] = test: production of prostaglandin E2 by monocytes; format: cell-based, Human; conditions: effect on monocyte function
Method: (§1) Human peripheral blood mononuclear cells were obtained by standard procedures employing continuous flow cell separation (leukapheresis), such as described in Wahl, et al., Cellular Immunol. 85:373-383 (1984). The preparation was diluted in phosphate-buffered saline and layered onto gradients of Ficoll-Paque (Pharmacia-PL Biochemicals, Piscataway, N.J., USA). After centrifugation, mononuclear cells were pipetted from the interface, washed, and suspended in DMEM-GG-FCS. They were then fractionated by countercurrent centrifugal elutriation. The procedure comprises the Beckman elutriation system including a J-21 Beckman Centrifuge, a JE-6 elutriator rotor, a stroboscope, and a Masterflex pump and pumphead. The cells were loaded into the rotor and fractionated by elution at increasing flow rates. Fractions 7 and 8, highly enriched for monocytes, were pooled for use.

[3] = biological target: T1, HIV reverse transcriptase (Human immunodeficiency virus type 1 group M subtype B, UniProt P03367); test: reverse transcriptase assay on supernatant of chronically HIV-producing cells; format: cell-based; conditions: for activity at 10 µg/mL: dose 10.0 micrograms/ml; for activity at 0.01 µg/mL: dose 0.01 micrograms/ml; for activity at 0.1 µg/mL: dose 0.1 micrograms/ml; for activity at 1 µg/mL: dose 1.0 micrograms/ml
T1 construct: endogenous in cells; host or cells: U.1 (clone of promonocytic U937) and 8.E6 (clone of lymphoid A.301), chronically HIV-producing
Method: Liposomes were tested for toxic effect on two types of cells which chronically produce HIV. One clone (8.E6) was derived from the lymphoid cell line A.301; the other clone (U.1) was derived from the promonocytic line U937. Cells (1×10⁶/well) in RPMI medium with 10% fetal calf serum were pipetted into a flat-bottom 96-well microtiter plate. To each well was added 50 microliters of solution containing ddCTP-liposomes, empty liposomes, free ddCTP or phosphate buffered saline. Fifty microliters of phorbol myristyl acetate (PMA) was then added to each well to a final concentration of 10⁻⁹ M for stimulation, or else 50 microliters of saline was added for non-stimulated configurations. The plates were incubated at 37°C in 7% CO₂ for about 48 hours. 100 microliters of supernatant was then taken from each well to analyze for reverse transcriptase (RT) activity using polyadenylate and oligo-deoxythymidine. To perform the RT assay, 10 microliters of supernatant containing RT was added to a cocktail containing poly A, oligo dT (Pharmacia, Inc. Piscataway, N.J., USA) MgCl₂, and ³²P-dTTP (Amersham) and incubated for 2 hours at 37°C. Ten microliters of the cocktail was then spotted onto DE81 paper, dried, and washed in 1X saline sodium citrate buffer. The paper was then dried, cut and counted on a Beckman LS 7000 scintillation counter.

monocytes [4] = test: percent lysis of Candida albicans by monocytes; format: cell-based, Human; conditions: effect on monocyte function
Method: as §1

[5] = leakage from liposomes at 4°C; format: physicochemical; conditions: liposomes of Example 1 or similar liposomes
[6] = trypan blue exclusion test; format: cell-based; conditions: human, 8.e6 and u.1 cells; at all doses; read-out: viable cells (trypan blue exclusion)
Text: Tritiated thymidine uptake was used to assess toxic effects of ddCTP liposomes on the lymphoid (8.E6) and promonocytic (U.1) clones. […] As judged by trypan blue exclusion test, the cells remained more than 90% viable at all doses.

adherent human monocytes = test: uptake of dideoxynucleotides; format: cell-based; conditions: 37°C, drug 1 uM
Method: Uptake of ₃H-deoxyctidine triphosphate (³H-dCTP) was used as an indicator of the uptake of vesicle contents by cells. Uptake experiments were done by plating 5 × 10⁶ monocytes in each well of a 6-well microtiter plate (Costar) and adding reagents one or two days later. Incubations were done in DMEM-GG-FCS at 37°C. The rate of increase of dCTP content in the cells over a 9-hour period (Table 7) averaged 0.29 pmole/million cells/hr with liposomes containing 4 mM EPC. Other experiments established that ddCTP and ddCMP are not readily taken up by the cells (Table 9).

monocytes [7] = test: superoxide generation by monocytes; format: cell-based, Human
Method: as §1

[8] = PMA-stimulated (1 nM) U.1 cells, normalized by average of empty liposome controls
[9] = U.1 cells, no PMA, relative to controls with no drug

With `Nc1ccn([C@H]2CC[C@@H](COP(=O)(O)OP(=O)(O)OP(=O)(O)O)O2)c(=O)n1` [ddCTP, 2ʹ,3ʹ-dideoxycytidine-5ʹ-triphosphate] the “% of total drug in liposomes” value ([1]; absence of cells, 0 h) was 85.6%, the “% of total drug in liposomes” value ([1]; absence of cells, 0.16 h) was 74.3% and the “% of total drug in liposomes” value ([1]; absence of cells, 0.32 h) was 78.5%. The “% of total drug in liposomes” value ([1]; absence of cells, 1 h) was 77.2%, the “% of total drug in liposomes” value ([1]; absence of cells, 2 h) was 82.1% and the “% of total drug in liposomes” value ([1]; absence of cells, 4 h) was 78.5%. For the same compound, the “% of total drug in liposomes” value ([1]; absence of cells, 24 h) was 81.7%, the “% of total drug in liposomes” value ([1]; absence of cells, 48 h) was 75.7% and the “% of total drug in liposomes” value ([1]; absence of cells, 72 h) was 87.4%. The leakage from liposomes ([1]; over a period of 72 hours, presence or absence of adherent monocytes) was “Very little leakage”, the “% of total drug in liposomes” value ([1]; with adherent human monocytes, 0 h) was 84.4% and the “% of total drug in liposomes” value ([1]; with adherent human monocytes, 0.16 h) was 83.8%. For the same compound, the “% of total drug in liposomes” value ([1]; with adherent human monocytes, 0.32 h) was 84.4%, the “% of total drug in liposomes” value ([1]; with adherent human monocytes, 1 h) was 78.0% and the “% of total drug in liposomes” value ([1]; with adherent human monocytes, 2 h) was 83.3%. The “% of total drug in liposomes” value ([1]; with adherent human monocytes, 4 h) was 82.9%, the “% of total drug in liposomes” value ([1]; with adherent human monocytes, 24 h) was 75.9% and the “% of total drug in liposomes” value ([1]; with adherent human monocytes, 48 h) was 68.0%. The “% of total drug in liposomes” value ([1]; with adherent human monocytes, 72 h) was 78.4%, the “production of prostaglandin E2” value (monocytes [2]) was “No consistent effects” and the activity at 10 µg/mL ([3]; 48 h, U.1 cells, no PMA, relative to controls with no drug) was 69 ± 21%. The activity at 0.01 µg/mL [3, 8] was 84%, the activity at 0.1 µg/mL [3, 8] was 96% and the activity at 1 µg/mL [3, 8] was 75%. It also gave an activity at 10 µg/mL [3, 8] of 75%, an activity at 0.01 µg/mL [3, 9] of 67 ± 19% and an activity at 0.1 µg/mL [3, 9] of 80 ± 12%. The activity at 1 µg/mL [3, 9] was 61 ± 4%, the “percent lysis of Candida albicans” value (monocytes [4]) was “No consistent effects” and the “t1/2 for leakage from liposomes” value [5] was greater than 60 h. For the same compound, the viability [6] was greater than 90%, the “pmole drug/1 million cells (mean)” value (adherent human monocytes; 0. h) was 0.15 pmole drug/1 million cells and the “pmole drug/1 million cells (mean)” value (adherent human monocytes; 0.33 h) was 0.09 pmole drug/1 million cells. For the same compound, the “pmole drug/1 million cells (mean)” value (adherent human monocytes; 1.00 h) was 0.09 pmole drug/1 million cells, the “pmole drug/1 million cells (mean)” value (adherent human monocytes; 3.00 h) was 0.11 pmole drug/1 million cells and the “pmole drug/1 million cells (mean)” value (adherent human monocytes; 6.00 h) was 0.33 pmole drug/1 million cells. For the same compound, the “pmole drug/1 million cells (mean)” value (adherent human monocytes; 9.00 h) was 0.43 pmole drug/1 million cells, the “pmole drug/1 million cells (mean)” value (adherent human monocytes; 20.00 h) was 0.66 pmole drug/1 million cells and the Superoxide (monocytes [7]; ddCTP 2.2 uM) was 1.21 (.02) nmoles/well. The Superoxide (monocytes [7]; ddCTP 11 uM) was 0.85 (.04) nmoles/well, the Superoxide (monocytes [7]; ddCTP 56 uM) was 0.77 (.04) nmoles/well and the Superoxide (monocytes [7]; ddCTP .0 uM) was 1.19 (.06) nmoles/well. The Superoxide (monocytes [7]; ddCTP .018 uM) was 1.33 (.05) nmoles/well, the Superoxide (monocytes [7]; ddCTP .09 uM) was 1.42 (.10) nmoles/well and the Superoxide (monocytes [7]; ddCTP .45 uM) was 1.33 (.08) nmoles/well.
